Data from publication PMC3947464 (ChemMedChem, 2013).

Assays:
U937 cells = experiment: MTT anti-proliferation assay, U937; format: cell-based; details: Homo sapiens, U-937, 48 h, read-out: IC50 tumor cell growth inhibition U937
MCF7 cells = experiment: MTT anti-proliferation assay, MCF7; format: cell-based; details: Homo sapiens, MCF7, 48 h, read-out: IC50 tumor cell growth inhibition MCF7
PC3 cells = experiment: MTT anti-proliferation assay, PC3; format: cell-based; details: Homo sapiens, PC-3, 48 h, read-out: IC50 tumor cell growth inhibition PC3
U937 cell line [1] = experiment: Western blot of c-Raf, p-Erk, Erk, p-Akt, Akt in U937; format: cell-based, Human; details: U937, 1 µM, 24h
U937 cell line [2] = experiment: Western blot of acetylated histone H3, H4, p21 and acetylated tubulin in U937; format: cell-based, Human; details: U937, 1 µM; for cell permeability and intracellular HDAC inhibition: 6h and 24h, western blot; for acetylated tubulin level, 24h: after 24h
K562 cells = experiment: MTT anti-proliferation assay, K562; format: cell-based; details: Homo sapiens, K562, 48 h, read-out: IC50 tumor cell growth inhibition K562
HL60 cells = experiment: MTT anti-proliferation assay, HL60; format: cell-based; details: Homo sapiens, HL-60, 48 h, read-out: IC50 tumor cell growth inhibition HL60
[3] = Body weight and organ toxicity in the U937 xenograft study; format: in vivo; details: 100 mg/kg/d intragastric, measured every two days
Water solubility = format: physicochemical; details: compared among the derived molecules
U937 xenograft = experiment: In vivo antitumor assay against U937 xenograft; parameters: species or system athymic nude mice; details: 100 mg/kg/d intragastric, 16 days; for mean weight of tumors: negative control 2.66 g

| Structure (SMILES) | IC50 (U937 cells) | IC50 (MCF7 cells) | IC50 (PC3 cells) | p-Akt level (U937 cell line [1]) | cell permeability and intracellular HDAC inhibition (U937 cell line [2]) | acetylated tubulin level, 24h (U937 cell line [2]) | IC50 (K562 cells) | IC50 (HL60 cells) | mice body weight loss [3] | water solubility (Water solubility) | inhibitory ratio (tumor weight) (U937 xenograft) | mean weight of tumors (U937 xenograft) |
| --- | --- | --- | --- | --- | --- | --- | --- | --- | --- | --- | --- | --- |
| O=C(NO)c1ccc(NC(=O)[C@@H](NC(=O)c2ccc3ccccc3c2)c2ccccc2)cc1 [Compound D3, (S)-N-(2-((4-(hydroxycarbamoyl)phenyl)amino)-2-oxo-1-phenylethyl)-2-naphthamide] | 1.32 ± 0.07 µM | 2.92 ± 0.15 µM | 3.77 ± 0.27 µM | significantly decreased | cell permeable and can inhibit intracellular and even nuclear HDACs | still significant | 1.19 ± 0.04 µM | 3.15 ± 0.13 µM |  |  |  |  |
| O=C(NO)c1ccc(NC(=O)[C@@H](NC(=O)c2ccc(F)cc2)c2ccccc2)cc1 [Compound D4, (S)-4-fluoro-N-(2-((4-(hydroxycarbamoyl)phenyl)amino)-2-oxo-1-phenylethyl)benzamide] | 1.64 ± 0.08 µM | 2.04 ± 0.17 µM | 5.88 ± 0.36 µM |  |  |  | 1.59 ± 0.06 µM | 4.55 ± 0.21 µM |  |  |  |  |
| O=C(NO)c1ccc(NC(=O)[C@@H](NS(=O)(=O)c2cccc3ccccc23)c2ccccc2)cc1 [Compound D5, (S)-N-hydroxy-4-(2-(naphthalene-1-sulfonamido)-2-phenylacetamido)benzamide] | 1.63 ± 0.09 µM | 8.66 ± 0.73 µM | 10.1 ± 0.57 µM |  | cell permeable and can inhibit intracellular and even nuclear HDACs | still significant | 0.93 ± 0.02 µM | 2.88 ± 0.16 µM |  |  |  |  |
| O=C(NO)c1ccc(NC(=O)[C@@H](NC(=O)c2ccccc2)c2ccccc2)cc1 [Compound D7, (S)-4-(2-benzamido-2-phenylacetamido)-N-hydroxybenzamide] | 1.77 ± 0.06 µM | 10.8 ± 0.93 µM | 5.67 ± 0.35 µM |  |  |  | 1.47 ± 0.07 µM | 2.02 ± 0.15 µM |  |  |  |  |
| COc1ccccc1C(=O)N[C@H](C(=O)Nc1ccc(C(=O)NO)cc1)c1ccccc1 [Compound D11, (S)-N-(2-((4-(hydroxycarbamoyl)phenyl)amino)-2-oxo-1-phenylethyl)-2-methoxybenzamide] | 1.71 ± 0.03 µM | 8.23 ± 0.32 µM | 20.5 ± 1.73 µM |  |  |  | 3.16 ± 0.11 µM | 0.78 ± 0.02 µM |  |  |  |  |
| COc1ccc(C(=O)N[C@H](C(=O)Nc2ccc(C(=O)NO)cc2)c2ccccc2)cc1 [Compound D12, (S)-N-hydroxy-4-(2-(4-methoxybenzamido)-2-phenylacetamido)benzamide] | 1.55 ± 0.04 µM | 6.28 ± 0.33 µM | 3 ± 0.15 µM |  |  |  | 1.93 ± 0.12 µM | 1.8 ± 0.09 µM |  |  |  |  |
| O=C(NO)c1ccc(NC(=O)[C@@H](NC(=O)c2cccc(Br)c2)c2ccccc2)cc1 [Compound D13, (S)-3-bromo-N-(2-((4-(hydroxycarbamoyl)phenyl)amino)-2-oxo-1-phenylethyl)benzamide] | 1.39 ± 0.03 µM | 9.71 ± 0.44 µM | 31.6 ± 2.33 µM |  | cell permeable and can inhibit intracellular and even nuclear HDACs | still significant | 1.58 ± 0.06 µM | 1.53 ± 0.04 µM |  |  |  |  |
| CN(C)c1cccc2c(S(=O)(=O)N[C@H](C(=O)Nc3ccc(C(=O)NO)cc3)c3ccccc3)cccc12 [Compound D17, (S)-4-(2-(5-(dimethylamino)naphthalene-1-sulfonamido)-2-phenylacetamido)-N-hydroxybenzamide] | 1.24 ± 0.02 µM | 5.34 ± 0.22 µM | 3.31 ± 0.16 µM | significantly decreased | cell permeable and can inhibit intracellular and even nuclear HDACs | reduced | 0.7 ± 0.01 µM | 3.66 ± 0.13 µM | No evidence of mice body weight (measured every two days) loss | best water solubility | 53.57% | 1.24 g |
| COc1ccccc1NC(=O)N[C@H](C(=O)Nc1ccc(C(=O)NO)cc1)c1ccccc1 [Compound D18, (S)-N-hydroxy-4-(2-(3-(2-methoxyphenyl)ureido)-2-phenylacetamido)benzamide] | 1.31 ± 0.07 µM | 5.14 ± 0.43 µM | 1.51 ± 0.05 µM |  | cell permeable and can inhibit intracellular and even nuclear HDACs | reduced | 1.55 ± 0.05 µM | 3.83 ± 0.29 µM |  |  |  |  |
| O=C(CCCCCCC(=O)Nc1ccccc1)NO [SAHA, Suberoyl anilide hydroxamic acid, reference compound] |  |  |  |  |  |  | 1.86 ± 0.07 µM |  |  |  |  | 2.00 g |
